Tested on: NIH-MDR1-G185 cells
Assay: Fluorescent substrate accumulation assay (BODIPY-FL Taxol accumulation)
Assay type: cell-based
Settings: MDR modulator 10 micromolar, 15 min preincubation; BODIPY-FL Taxol 500 nM, 40 min at 37° C.; fluorescence in presence/absence of modulator
Procedure: NIH-MDR1-G185 cells (obtained from M. Gottesman, NIH) were harvested and resuspended in RPMI-1640 containing L-glutamine, 10% Cosmic Calf Serum and penicillin-streptomycin. Cell suspension aliquots of 175 microliters (1×10^5 cells) were added to individual wells of a 96 well microtiter plate and preincubated for 15 min at 37° C. with 20 microliter MDR modulator diluted in cell culture media to give a final concentration of 10 micromolar. Control wells received no modulating agent. BODIPY-FL Taxol (Molecular Probes, Eugene, Oreg.) was added to each well in 10 microliter aliquots to give a final concentration of 500 nM and cells were incubated for 40 min at 37° C. Cells were centrifuged at 100× g for 5 min at 4° C. and the cell pellet washed with 200 microliters cold PBS to remove fluorescent medium from wells. Cells were centrifuged once more, media removed, and cells resuspended in 200 microliters cold PBS. Fluorescence accumulation was measured in a fluorescence plate reader fitted with an excitation filter of 485 nm and an emission filter of 538 rn. BODIPY-FL taxol accumulation in the cells was calculated as follows:
Accumulation Index=(fluorescence in NIH-MDR1-G185 cells in the presence of modulator)/(fluorescence in NIH-MDR1-G185 cells in absence of modulator)
Accumulation Index of various compounds prepared above was tested according to the method in Reference Example 3.

SMILES | Accumulation Index
O=C(C(CCCc1ccccc1)CCCc1ccccc1)N1CCCCN(C[C@@H](O)COc2cccc3ncccc23)C1 [Example 5] | 12
COc1ccc(S(=O)(=O)N2CCC(=O)N(c3ccccc3)C2C(=O)N2CCN(C(c3ccccc3)c3ccccc3)CC2)cc1OC (centres unmarked) [Example 12] | 7

Reference: patent publication US20020115659A1, “Compounds having heterocyclic groups containing two nitrogen atoms for treating multidrug resistance” (priority 2000, published 2002)
